Measurements reported in patent US9585975B2, “MRI contrast agents” (NORTHWESTERN UNIVERSITY, priority 2012, dated 2017).
Several values for one entry are separate records, joined by “and”; a condition that tells them apart may be missing. Equal values may be shown once. Read-outs that look alike come from different tables or passages of the source.

Legend:
HaloTag protein = settings: 37° C.
Protocol: The HaloTag protein was expressed recombinantly after subcloning the target protein into the vector pMCSG7 to include an N-terminal His6-Tag followed by a TEV protease cleavage site. The protein was expressed in BL21(DE3) cells and purified by Nickel affinity chromatography. […] The HaloTag protein was labeled with a 5-fold molar excess of the Gd(III) complex at 4 degrees C. overnight. […] The labeled proteins were concentrated to a starting concentration of ˜600 μM for all relaxivity analyses.
Longitudinal relaxivities of the unbound agents were determined in water and the protein-bound contrast agents in 10 mM MOPS at 1.5 T, 37_C (Table 1).
To prepare the protein-bound contrast agent 12.5 mg protein was incubated overnight at 4° C. with five equivalents haloalkane label. Excess label was removed by size-exclusion chromatography (Econo-Pac 10 DG Disposable Chromatography Columns) and dialysis overnight into 10 mM MOPS, pH 7.4 (Spectrum Spectra/Por 4 Dialysis Membrane Tubing 12-14K MWCO) at 4° C. The protein-bound contrast agent was concentrated to a starting concentration of ˜600 μM for all relaxivity assays (Amicon Ultra-4, PLGC Ultracel-PL Membrane, 10 kDa). Agent binding was detected by mass spectrometry (Agilent 6510 Accurate-Mass Q-TOF LC/MS) and data deconvolution was performed with the included software (Agilent MassHunter Qualitative Analysis).
The relaxation rates and Gd(III) concentrations were determined for contrast agent solutions in a range of concentrations. The relaxation rates of small molecule contrast agents were investigated using a 4 mM starting solution in water and diluted 1:1 four times. Relaxation rates of protein bound contrast agents were measured using 600 μM starting solution in 10 mM MOPS and was diluted 1:1 four times. Relaxation rates were determined using a 60 MHz (1.5 T) NMR analyzer (Bruker Minispec MQ60) at 37° C. using 500 μL in a 7.5 mm inner diameter NMR tubes. T1 relaxation times were determined using monoexponential curve fitting and an inversion recovery pulse sequence with four averages for each of 10 data points.
Gd(III) concentrations for all samples were measured by ICP-MS. Samples were prepared by dissolving 10 μL into 90 μL trace nitric acid, and diluted to 10 mL with ultrapure water (nitric acid was added to generate a 3% solution. Samples contained a multi-element internal standard consisting of 5 ppb each Bi, Ho, In, Li(6), Sc, Tb, and Y (Spex Certiprep, Metuchen, N.J., USA). ICP-MS was performed on a computer-controlled (Plasmalab software) Thermo X series II ICP-MS (Thermo Fisher Scientific, Waltham, Mass., USA) equipped with an ESI SC-2 autosampler (Omaha, Nebr., USA). Each sample was acquired using 1 survey run (10 sweeps) and 3 main (peak jumping) runs (100 sweeps).

[1] = Relaxivity determination of free (unbound) contrast agents; type: physicochemical; settings: 37° C.
Protocol: The relaxation rates and Gd(III) concentrations were determined for contrast agent solutions in a range of concentrations. The relaxation rates of small molecule contrast agents were investigated using a 4 mM starting solution in water and diluted 1:1 four times. […] Relaxation rates were determined using a 60 MHz (1.5 T) NMR analyzer (Bruker Minispec MQ60) at 37° C. using 500 μL in a 7.5 mm inner diameter NMR tubes. T1 relaxation times were determined using monoexponential curve fitting and an inversion recovery pulse sequence with four averages for each of 10 data points.

[2] = 1.5 T, 37 degrees C.; cited from earlier work
HSA = HSA (Homo sapiens, UniProt P02768); settings: 1.5 T, 37 degrees C.; cited from earlier work
Sequence of HSA (P02768 25-609): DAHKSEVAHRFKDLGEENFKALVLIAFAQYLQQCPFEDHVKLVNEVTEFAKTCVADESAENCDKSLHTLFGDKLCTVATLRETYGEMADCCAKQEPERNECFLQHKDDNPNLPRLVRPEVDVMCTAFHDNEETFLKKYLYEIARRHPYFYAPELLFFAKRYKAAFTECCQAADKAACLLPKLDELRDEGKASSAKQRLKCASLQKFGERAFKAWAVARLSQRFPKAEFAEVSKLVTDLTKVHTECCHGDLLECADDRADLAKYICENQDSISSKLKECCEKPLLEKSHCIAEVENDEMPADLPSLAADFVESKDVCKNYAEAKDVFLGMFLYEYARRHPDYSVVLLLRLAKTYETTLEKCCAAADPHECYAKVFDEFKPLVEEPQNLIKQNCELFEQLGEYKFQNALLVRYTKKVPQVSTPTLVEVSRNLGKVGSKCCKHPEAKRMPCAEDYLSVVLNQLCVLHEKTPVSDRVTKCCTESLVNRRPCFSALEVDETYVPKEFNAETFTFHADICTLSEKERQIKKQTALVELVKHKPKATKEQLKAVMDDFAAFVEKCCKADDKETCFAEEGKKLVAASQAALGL

SMILES	r1 - PB (longitudinal relaxivity, protein-bound) (HaloTag protein; 60 MHz (1.5 T), 10 mM MOPS)	r2 - PB (transverse relaxivity, protein-bound) (HaloTag protein; 60 MHz)	r1 - PB (longitudinal relaxivity, protein-bound) (HaloTag protein; 400 MHz)	r2 - PB (transverse relaxivity, protein-bound) (HaloTag protein; 400 MHz)	r2 - F (transverse relaxivity, free) ([1]; 60 MHz)	r1 - F (longitudinal relaxivity, free) ([1]; 400 MHz)	r2 - F (transverse relaxivity, free) ([1]; 400 MHz)	relaxivity, unbound [2]	relaxivity when bound to HSA (HSA)
O=C([O-])CN1CCN(CC(=O)[O-])CCN(CC(=O)NCCOCCOCCCCCCCl)CCN(CC(=O)[O-])CC1.[Gd+3] [1CHTGd]	13.4 ± 1.3 mM⁻¹ s⁻¹	25.2 ± 2.6 mM⁻¹ s⁻¹	4.0 ± 0.2 mM⁻¹ s⁻¹	28 ± 2 mM⁻¹ s⁻¹	4.1 ± 0.2 mM⁻¹ s⁻¹	3.2 ± 0.1 mM⁻¹ s⁻¹	4.0 ± 0.1 mM⁻¹ s⁻¹		
O=C([O-])CN1CCN(CCC(=O)NCCOCCOCCCCCCCl)CCN(CC(=O)[O-])CCN(CC(=O)[O-])CC1.[Gd+3] [2CHTGd]	22.0 mM⁻¹ s⁻¹ and 22.0 ± 2.2 mM⁻¹ s⁻¹	45.3 ± 5.5 mM⁻¹ s⁻¹	5.1 ± 0.7 mM⁻¹ s⁻¹	56 ± 8 mM⁻¹ s⁻¹	3.9 ± 0.5 mM⁻¹ s⁻¹	3.3 ± 0.1 mM⁻¹ s⁻¹	4.1 ± 0.1 mM⁻¹ s⁻¹		
O=C([O-])CN1CCN(CCCC(=O)NCCOCCOCCCCCCCl)CCN(CC(=O)[O-])CCN(CC(=O)[O-])CC1.[Gd+3] [3CHTGd]	7.6 ± 0.7 mM⁻¹ s⁻¹	13.1 ± 0.9 mM⁻¹ s⁻¹	2.7 ± 0.1 mM⁻¹ s⁻¹	15.9 ± 0.1 mM⁻¹ s⁻¹	5.8 ± 0.1 mM⁻¹ s⁻¹	6.0 ± 0.2 mM⁻¹ s⁻¹	4.9 ± 0.2 mM⁻¹ s⁻¹		
O=C([O-])CN1CCN(CCCCC(=O)NCCOCCOCCCCCCCl)CCN(CC(=O)[O-])CCN(CC(=O)[O-])CC1.[Gd+3] [4CHTGd]	8.6 ± 1.1 mM⁻¹ s⁻¹	15.9 ± 2.3 mM⁻¹ s⁻¹	3.3 ± 0.2 mM⁻¹ s⁻¹	19.6 ± 1.3 mM⁻¹ s⁻¹	6.5 ± 0.5 mM⁻¹ s⁻¹	5.6 ± 0.2 mM⁻¹ s⁻¹	6.9 ± 0.2 mM⁻¹ s⁻¹		
O=C([O-])CN(CCN(CC(=O)[O-])C[C@H](COP(=O)([O-])OC1CCC(c2ccccc2)(c2ccccc2)CC1)N(CC(=O)[O-])CC(=O)[O-])CC(=O)[O-].[Gd+3].[H+].[H+].[H+] [MS-325]								5.5 mM⁻¹ s⁻¹	25 mM⁻¹ s⁻¹
